pEC50: −log10 of the molar value.
Experiments:
[1] = test system: annular sections of the basilar artery of dogs; assay: In vitro vasoconstrictive activity in the basilar artery of dogs; conditions: dog basilar artery, endothelium removed
Protocol: Experiments are carried out on annular sections of the basilar artery of dogs from which the endothelium has been removed and which are placed in an organ chamber enabling the measurement of isometric contractions in the presence or absence of ketanserin.

[2] = test system: annular sections of the coronary artery; assay: Effect on annular sections of the coronary artery; set-up: species or system dogs; conditions: same doses as in the basilar artery test
[3] = test system: sections of the saphenous vein; assay: Effect on sections of the saphenous vein; set-up: species or system dogs; conditions: same doses as in the basilar artery test

| pEC50 ([1]; isometric contractions, read-out: EC50, contraction of basilar artery sections) | SMILES | effect on annular sections of the coronary artery [2] | effect on sections of the saphenous vein [3] | induction of contractions in arterial sections [1] |
| --- | --- | --- | --- | --- |
| ~6.00 | CNS(=O)(=O)Cc1ccc2cccc(CCN(C)C)c2c1 [Example 1, 2-{1-[2-(Dimethylamino)ethyl]naphth-7-yl}-N-methyl-methanesulphonamide] | does not show any significant effect | does not show any significant effect |  |
|  | NCCc1c[nH]c2ccc(O)cc12 [serotonin, reference compound] |  |  | capable of inducing contractions |
